From US7612064B2, “Sulfopyrroles” (Takeda Pharmaceutical Company Limited, priority 2003, dated 2009)

Key:
Jily = experiment: MTS proliferation assay; type: cell-based; conditions: 72 h
How it was run: (§1)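 Absorbance at 492 nm after a 3 h MTS incubation reports viable cell number. Before that, compounds at 10 μM, 3 μM, 1 μM and 0.3 μM final stay on the cells for 72 h at culture conditions.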

MRC5 = experiment: MTS proliferation assay; type: cell-based; conditions: MRC5, 72 h
How it was run: as §1

Jurkat = experiment: MTS proliferation assay; type: cell-based, human; conditions: 72 h
How it was run: as §1

HeLa = experiment: MTS proliferation assay; type: cell-based, human; conditions: 72 h
How it was run: as §1

[1] = Hoechst 33342 nuclear staining; type: cell-based; conditions: for Hoechst 33342 nuclear staining score, H460: H460 cells; for Hoechst 33342 nuclear staining score, HeLa: HeLa cells; for Hoechst 33342 nuclear staining score, Jily: Jily cells; for Hoechst 33342 nuclear staining score, Jurkat: Jurkat cells; for Hoechst 33342 nuclear staining score, MRC5: MRC5 cells; for Hoechst 33342 nuclear staining score, PBLs: key: 0: no activity; 1: weak activity comprising less than 50% of the cells; 2: strong activity comprising more than 50% of the cells;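 for all read-outs here: apoptotic nuclei scored 0 none 1 weak under 50% of cells 2 strong over 50% of cells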
How it was run: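 Cells were plated in 96 well tissue culture plates in 80 μl complete medium, with 3-5*10^3 cells per well for adherent lines and 8-10*10^3 for suspension lines. Adherent cells spread for 24 h before treatment, while suspension cells were treated right after seeding. Compounds were added in 20 μl complete medium containing max 5% DMSO.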

Row | SMILES | IC50 (Jily) [nM] | Hoechst 33342 nuclear staining score, H460 ([1]; conc 0.1) | Hoechst 33342 nuclear staining score, H460 ([1]; conc 0.3) | Hoechst 33342 nuclear staining score, H460 ([1]; conc 1) | Hoechst 33342 nuclear staining score, H460 ([1]; conc 3) | Hoechst 33342 nuclear staining score, HeLa ([1]; conc 0.1) | Hoechst 33342 nuclear staining score, HeLa ([1]; conc 0.3) | Hoechst 33342 nuclear staining score, HeLa ([1]; conc 1) | Hoechst 33342 nuclear staining score, HeLa ([1]; conc 3) | Hoechst 33342 nuclear staining score, Jily ([1]; conc 0.1) | Hoechst 33342 nuclear staining score, Jily ([1]; conc 0.3) | Hoechst 33342 nuclear staining score, Jily ([1]; conc 1) | Hoechst 33342 nuclear staining score, Jily ([1]; conc 3) | Hoechst 33342 nuclear staining score, Jurkat ([1]; conc 0.1) | Hoechst 33342 nuclear staining score, Jurkat ([1]; conc 0.3) | Hoechst 33342 nuclear staining score, Jurkat ([1]; conc 1) | Hoechst 33342 nuclear staining score, Jurkat ([1]; conc 3) | Hoechst 33342 nuclear staining score, MRC5 ([1]; conc 0.1) | Hoechst 33342 nuclear staining score, MRC5 ([1]; conc 0.3) | Hoechst 33342 nuclear staining score, MRC5 ([1]; conc 1) | also measured
1 | COc1ccc(S(=O)(=O)n2cc(-c3ccc(N)nc3)cc2-c2cc(OC)ccc2OC)cc1 [Example 101] | < 200 | 0 | 2 (strong activity comprising more than 50% of the cells) | 2 (strong activity comprising more than 50% of the cells) | 2 (strong activity comprising more than 50% of the cells) | 0 | 2 (strong activity comprising more than 50% of the cells) | 2 (strong activity comprising more than 50% of the cells) | 2 (strong activity comprising more than 50% of the cells) | 0 | 2 (strong activity comprising more than 50% of the cells) | 2 (strong activity comprising more than 50% of the cells) | 2 (strong activity comprising more than 50% of the cells) | 0 | 2 (strong activity comprising more than 50% of the cells) | 2 (strong activity comprising more than 50% of the cells) | 2 (strong activity comprising more than 50% of the cells) | 0 | 2 (strong activity comprising more than 50% of the cells) | 2 (strong activity comprising more than 50% of the cells) | IC50 (MRC5): < 1000 nM; IC50 (Jurkat): < 200 nM; IC50 (HeLa): < 1000 nM; Hoechst 33342 nuclear staining score, MRC5 ([1]; conc 3): 2 (strong activity comprising more than 50% of the cells); Hoechst 33342 nuclear staining score, PBLs ([1]; conc 0.1): 0; Hoechst 33342 nuclear staining score, PBLs ([1]; conc 0.3): 0; Hoechst 33342 nuclear staining score, PBLs ([1]; conc 1): 0; Hoechst 33342 nuclear staining score, PBLs ([1]; conc 3): 0
2 | COc1cc(-c2cc(-c3cccnc3)cn2S(=O)(=O)c2ccc(C(F)(F)F)cc2)cc(OC)c1OC [Example 82] | > 1000 | 0 | 0 | 2 (strong activity comprising more than 50% of the cells) | 2 (strong activity comprising more than 50% of the cells) | 0 | 0 | 2 (strong activity comprising more than 50% of the cells) | 2 (strong activity comprising more than 50% of the cells) | 0 | 0 | 1 (weak activity comprising less than 50% of the cells) | 2 (strong activity comprising more than 50% of the cells) | 0 | 0 | 2 (strong activity comprising more than 50% of the cells) | 2 (strong activity comprising more than 50% of the cells) | 0 | 0 | 1 (weak activity comprising less than 50% of the cells) | IC50 (MRC5): > 1000 nM; IC50 (Jurkat): < 1000 nM; IC50 (HeLa): > 1000 nM; Hoechst 33342 nuclear staining score, MRC5 ([1]; conc 3): 1 (weak activity comprising less than 50% of the cells); Hoechst 33342 nuclear staining score, PBLs ([1]; conc 0.1): 0; Hoechst 33342 nuclear staining score, PBLs ([1]; conc 0.3): 0; Hoechst 33342 nuclear staining score, PBLs ([1]; conc 1): 0; Hoechst 33342 nuclear staining score, PBLs ([1]; conc 3): 0
3 | COc1ccc(S(=O)(=O)n2cc(-c3cccnc3)cc2-c2cc(OC)c(OC)c(OC)c2)cc1 [Example 76, 1-p-Methoxyphenylsulfonyl-4-(3-pyridyl)-2-(3,4,5-trimethoxyphenyl)-pyrrole] | < 200 | 2 (strong activity comprising more than 50% of the cells) | 2 (strong activity comprising more than 50% of the cells) | 2 (strong activity comprising more than 50% of the cells) | 2 (strong activity comprising more than 50% of the cells) | 1 (weak activity comprising less than 50% of the cells) | 2 (strong activity comprising more than 50% of the cells) | 2 (strong activity comprising more than 50% of the cells) | 2 (strong activity comprising more than 50% of the cells) | 2 (strong activity comprising more than 50% of the cells) | 2 (strong activity comprising more than 50% of the cells) | 2 (strong activity comprising more than 50% of the cells) | 2 (strong activity comprising more than 50% of the cells) | 2 (strong activity comprising more than 50% of the cells) | 2 (strong activity comprising more than 50% of the cells) | 2 (strong activity comprising more than 50% of the cells) | 2 (strong activity comprising more than 50% of the cells) | 1 (weak activity comprising less than 50% of the cells) | 1 (weak activity comprising less than 50% of the cells) | 1 (weak activity comprising less than 50% of the cells) | IC50 (MRC5; Homo sapiens): < 200 nM; IC50 (Jurkat; Homo sapiens): < 200 nM; IC50 (HeLa; Homo sapiens): < 200 nM; Hoechst 33342 nuclear staining score, MRC5 ([1]; conc 3): 1 (weak activity comprising less than 50% of the cells); Hoechst 33342 nuclear staining score, PBLs ([1]; conc 0.1): 0; Hoechst 33342 nuclear staining score, PBLs ([1]; conc 0.3): 0; Hoechst 33342 nuclear staining score, PBLs ([1]; conc 1): 0; Hoechst 33342 nuclear staining score, PBLs ([1]; conc 3): 0
4 | COc1cc(-c2cc(-c3cccnc3)cn2S(=O)(=O)c2ccc3c(c2)CCO3)cc(OC)c1OC [Example 86] | < 1000 | 0 | 0 | 0 | 2 (strong activity comprising more than 50% of the cells) | 0 | 0 | 0 | 1 (weak activity comprising less than 50% of the cells) | 0 | 0 | 1 (weak activity comprising less than 50% of the cells) | 2 (strong activity comprising more than 50% of the cells) | 0 | 0 | 2 (strong activity comprising more than 50% of the cells) | 2 (strong activity comprising more than 50% of the cells) | 0 | 0 | 0 | IC50 (MRC5): > 1000 nM; IC50 (Jurkat): < 1000 nM; IC50 (HeLa): > 1000 nM; Hoechst 33342 nuclear staining score, MRC5 ([1]; conc 3): 1 (weak activity comprising less than 50% of the cells); Hoechst 33342 nuclear staining score, PBLs ([1]; conc 0.1): 0; Hoechst 33342 nuclear staining score, PBLs ([1]; conc 0.3): 0; Hoechst 33342 nuclear staining score, PBLs ([1]; conc 1): 0; Hoechst 33342 nuclear staining score, PBLs ([1]; conc 3): 0
5 | COc1cc(-c2cc(-c3cncc(CN)c3)cn2S(=O)(=O)c2ccc(C)cc2)cc(OC)c1OC [Example 58] | < 1000 | 0 | 0 | 2 (strong activity comprising more than 50% of the cells) | 2 (strong activity comprising more than 50% of the cells) | 0 | 0 | 2 (strong activity comprising more than 50% of the cells) | 2 (strong activity comprising more than 50% of the cells) | 0 | 0 | 2 (strong activity comprising more than 50% of the cells) | 2 (strong activity comprising more than 50% of the cells) | 0 | 2 (strong activity comprising more than 50% of the cells) | 2 (strong activity comprising more than 50% of the cells) | 2 (strong activity comprising more than 50% of the cells) | 0 | 0 | 1 (weak activity comprising less than 50% of the cells) | IC50 (MRC5): > 1000 nM; IC50 (Jurkat): < 1000 nM; IC50 (HeLa): < 1000 nM; Hoechst 33342 nuclear staining score, MRC5 ([1]; conc 3): 2 (strong activity comprising more than 50% of the cells); Hoechst 33342 nuclear staining score, PBLs ([1]; conc 0.1): 0; Hoechst 33342 nuclear staining score, PBLs ([1]; conc 0.3): 0; Hoechst 33342 nuclear staining score, PBLs ([1]; conc 1): 0; Hoechst 33342 nuclear staining score, PBLs ([1]; conc 3): 0
